This is an account of results in patent US20260256830A1, “PERITONEAL DIALYSIS FLUID” (ZYTOPROTEC FLEXIBLE KAPITALGESELLSCHAFT, priority 2022, published 2026).

A short description of the data set: Long-term stability of AGD in alkaline solution (amino acid analysis). Type of data set: physicochemical. To be noted: 52 weeks; for AGD, % of original amount after storage: 25° C./60% rH. On the procedure: The long-term stability tests of AGD in an alkaline solution according to the present invention have been performed. […] The pH of each sample was adjusted with 1 M NaOH. Aliquots of each sample were prepared under controlled conditions and stored under the defined conditions at 25° C./60% rH. Sterilization was performed under following conditions: The stability of AGD has been investigated by AS analysis. Analysis was performed by […] amino acid analysis with JEX and post column derivatization with Ninhydrine.

Peptide text beside a SMILES is read from it.

In the case of `C[C@H](N)C(=O)N[C@@H](CCC(N)=O)C(=O)O` [AGD, L-alanyl-L-glutamine] (H-Ala-Gln-OH), the “decrease of the AGD, of original amount” value (both samples (pH 7.4 and 7.8), storage at 25° C./60% rH) is given as “less than 5%”. In addition, the “AGD, % of original amount after storage” value runs as follows: (sample with pH-value of 7.4) 98%; (sample with pH-value of 7.8) over 95%.
